Columns and labels:
[1] = target: T1, Aldose reductase (Sus scrofa, UniProt P80276); experiment: Aldose Reductase Inhibition; assay type: biochemical; details: porcine lens aldose reductase; DL-glyceraldehyde 3 mM, NADPH 0.1 mM, pH 6.2, 37° C.
T1 construct: Aldose reductase samples were prepared from porcine lens; from tissue; host or cells: porcine lens
Description: Aldose reductase samples were prepared from porcine lens according the method by S. Hayman et al., (Journal of Biological Chemistry, 240, p. 877-882 (1965)). In brief, lens of porcine eyes were frozen (-80° C.) until employed. These lenses were homogenized with distilled water and then centrifuged at 10,000×g for 15 minutes. The supernatant was fractionated with 0 to 40% ammonium sulfate and centrifuged at 10,000×g for 10 minutes. The resultant supernatant was dialyzed overnight against 0.05M sodium chloride. The dialyzed solution was used as an aldose reductase sample. (Assay of Enzymatic Activity) Aldose reductase activity was assayed according to the aforementioned method by S. Hayman et al. In brief, to 200 μl of 40 mM phosphate buffer (pH 6.2) containing lithium sulfate, 0.4M (final concentration); NADPH (reduced nicotinamide adenine dinucleotide phosphate), 0.1 mM (final concentration); and DL-glyceraldehyde as a substrate, 3 mM (final concentration) was added 25 μl of the aldose reductase solution obtained by the aforementioned method and 25 μl of 1% DMSO solutions containing a sample inhibitor compound with different concentrations. The mixtures were incubated at 37° C. for 2 minutes for reaction and changes in the absorbance at 340 nm were read using an auto-analyzer (Hitachi Corporation, Model 7070, Japan). The change in the absorbance of a mixed solution including 1% DMSO instead of sample compounds was expresses as 100%. […] IC50 (M) means the concentration of the compounds, required for 50% inhibition of aldose reductase activity.

[2] = tested on: sorbitol accumulation in tissues (sciatic nerve, lens) of experimental diabetic rats; experiment: Inhibitory Effect on Sorbitol Accumulation in the Tissues of Experimental Diabetic Rats (Therapeutic Effect); assay type: in vivo, Sprague-Dawley rats; details: 5 days, from 7 days after streptozotocin, control = 100%, ** P < 0.01 (Tukey); for Sorbitol Accumulation, Nerve: sciatic nerve
Description: 4) Inhibitory Effect on Sorbitol Accumulation in the Tissues of Experimental Diabetic Rats (Therapeutic Effect)
Sprague-Dawley rats (male, 6-week-old, 5 to 6 rats/group), fasted for 18 hours, were made diabetic by injecting streptozotocin (Sigma) at a dose of 60 mg/kg body weight into the tail vein thereof. From 7 days after the streptozotocin injection, a sample compound suspended in 0.5% carboxymethyl cellulose was administered orally to the rats at a dose between 1 and 10 mg/kg once daily for 5 consecutive days. The rats were fed with diet and water ad libitum during the experiment. Three hours after the final administration, the sorbitol contents in the tissues (sciatic nerve, lens) was assayed enzymatically using SDH (sorbitol dehydrogenase) and NAD (β-nicotinamide adenine dinucleotide) according to the method by H. U. Bergmeyer et al. (Methods of Enzymatic Analysis, 3, p. 1323-1330 (1974)). The sorbitol contents in control groups to which 0.5% carboxymethyl cellulose was administered instead of sample compounds is expressed as 100%.

[3] = tested on: sorbitol accumulation in tissues (sciatic nerve, lens) of experimental diabetic rats; experiment: Inhibitory Effect on Sorbitol Accumulation in the Tissues of Experimental Diabetic Rats (Prophylactic effect); assay type: in vivo, Sprague-Dawley rats; details: control = 100%, ** P < 0.01 (Tukey); for Sorbitol Accumulation, Nerve: sciatic nerve
Description: 2) Inhibitory Effect on Sorbitol Accumulation in the Tissues of Experimental Diabetic Rats (Prophylactic effect)
Sprague-Dawley rats (male, 6-week-old, 5-6 rats/group), fasted for 18 hours, were made diabetic by a single intravenous (tail vein) injection of 60 mg/kg body weight of streptozotocin (Sigma). Four, eight and twenty four hours after the injection of streptozotocin, respectively, a sample compound suspended in 0.5% carboxymethyl cellulose was administered orally to the rats at a dose of 10 or 30 mg/kg. The rats were fed with diet and water ad libitum during the experiment. Three hours after the final administration, the sorbitol contents in the tissues (sciatic nerve, lens) was assayed enzymatically using SDH (sorbitol dehydrogenase) and NAD (β-nicotinamide adenine dinucleotide) according to the method by H. U. Bergmeyer et al. (Methods of Enzymatic Analysis, 3, p. 1323-1330 (1974)). The sorbitol contents in control groups to which 0.5% carboxymethyl cellulose was administered instead of sample compounds is expressed as 100%.

[4] = tested on: Normal ICR mice; experiment: Safety Study; assay type: in vivo; details: 1000 mg/kg oral, single dose; observed 7 days; male ICR mice, 5/group
Description: The safety of the compounds of the present invention was confirmed according to the following experimental procedure.
Normal ICR mice (male, 7-week-old, 5 mice/group), fasted for 18 hours, received orally the compound each of Examples 1-ii), 5-ii), 19-ii), 21, 22-ii) and 23-ii) suspended in 0.5% carboxymethyl cellulose at a dose of 1000 mg/kg. Control groups received only 0.5% carboxymethyl cellulose orally. […] The mice were fed with diet and water ad libitum during the experiment.

[5] = 10 mg/kg oral, 4, 8 and 24 h after streptozotocin
[6] = 30 mg/kg oral, 4, 8 and 24 h after streptozotocin

O=C(O)Cc1cc(Br)cc(Cc2nc3c(F)c(F)cc(F)c3s2)c1 [Example 28-ii), 3-[(4,5,7-trifluorobenzothiazol-2-yl)methyl]-5-bromophenylacetic acid]
IC50 [1]: 9.4 nM

O=C(O)Cc1cccc(Cc2nc3c(F)c(F)ccc3s2)c1Cl [Example 24-ii), 3-[(4,5-difluorobenzothiazol-2-yl)methyl]-2-chlorophenylacetic acid]
Sorbitol Accumulation, Lens ([2]; 10 mg/kg oral once daily): 26% | Sorbitol Accumulation, Nerve ([2]; 10 mg/kg oral once daily): 11%

Cc1cc(CC(=O)O)cc(Cc2nc3c(F)c(F)cc(F)c3s2)c1 [Example 22-ii), 3-[(4,5,7-trifluorobenzothiazol-2-yl)methyl]-5-methylphenylacetic acid]
IC50 [1]: 9.6 nM | Sorbitol Accumulation, Lens [3, 5]: 41% | Sorbitol Accumulation, Nerve [3, 5]: 0% | Sorbitol Accumulation, Lens ([2]; 3 mg/kg oral once daily): 25% | Sorbitol Accumulation, Nerve ([2]; 3 mg/kg oral once daily): 2%

O=C(O)Cc1cc(Cc2nc3c(F)c(F)cc(F)c3s2)cc(C(=O)O)c1 [Example 30-ii), 3-[(4,5,7-trifluorobenzothiazol-2-yl)methyl]-5-carboxymethylbenzoic acid]
IC50 [1]: 8.7 nM

O=C(O)Cc1cccc(Cc2nc3c(F)c(F)cc(F)c3s2)c1 [Example 1-ii), 3-[(4,5,7-trifluorobenzothiazol-2-yl)methyl]phenylacetic acid]
IC50 [1]: 6.6 nM | Sorbitol Accumulation, Lens [3, 6]: 4% | Sorbitol Accumulation, Nerve [3, 6]: 0% | Sorbitol Accumulation, Lens ([2]; 10 mg/kg oral once daily): 68% | Sorbitol Accumulation, Nerve ([2]; 10 mg/kg oral once daily): 2%

Cc1cc(CC(=O)O)cc(Cc2nc3c(F)c(F)ccc3s2)c1 [23-ii), 3-[(4,5-difluorobenzothiazol-2-yl)methyl]-5-methylphenylacetic acid]
mortality [4]: No animal died

CN(CC(=O)O)C(=O)CCc1nc2c(F)c(F)cc(F)c2s1 [Example 3-iii), N-[3-(4,5,7-trifluorobenzothiazol-2-yl)propionyl]-N-methylglycine]
IC50 [1]: 13 nM

O=C(O)Cc1cccc(Cc2nc3c(F)c(F)cc(F)c3s2)c1Cl [Example 25-ii), 3-[(4,5,7-trifluorobenzothiazol-2-yl)methyl]-2-chlorophenylacetic acid]
Sorbitol Accumulation, Lens ([2]; 1 mg/kg oral once daily): 47% | Sorbitol Accumulation, Nerve ([2]; 1 mg/kg oral once daily): 0%

O=C(O)CCCCSc1nc2c(F)c(F)cc(F)c2s1 [Example 15-ii), 5-(4,5,7-trifluorobenzothiazol-2-ylthio)pentanoic acid]
IC50 [1]: 14 nM

CN(C)c1cc(CC(=O)O)cc(Cc2nc3c(F)c(F)cc(F)c3s2)c1 [Example 31-ii), 3-[(4,5,7-trifluorobenzothiazol-2-yl)methyl]-5-dimethylaminophenylacetic acid]
IC50 [1]: 6.7 nM | Sorbitol Accumulation, Lens ([2]; 3 mg/kg oral once daily): 77% | Sorbitol Accumulation, Nerve ([2]; 3 mg/kg oral once daily): 1%

O=C(O)CN(Cc1ccccc1)C(=S)CCc1nc2c(F)c(F)cc(F)c2s1 [Example 8-ii), N-benzyl-N-[3-(4,5,7-trifluorobenzothiazol-2-yl)-1-thioxopropyl]glycine]
IC50 [1]: 23 nM

O=C(O)CN(Cc1ccccc1)C(=O)CCc1nc2c(F)c(F)cc(F)c2s1 [Example 5-ii), N-benzyl-N-[3-(4,5,7-trifluorobenzothiazol-2-yl)propionyl]glycine]
IC50 [1]: 9.7 nM

O=C(O)Cc1ccccc1Cc1nc2c(F)c(F)cc(F)c2s1 [Example 20-ii), 2-[(4,5,7-trifluorobenzothiazol-2-yl)methyl]phenylacetic acid]
IC50 [1]: 19 nM | Sorbitol Accumulation, Lens [3, 5]: 63% | Sorbitol Accumulation, Nerve [3, 5]: 15%

O=C(O)CN(C(=S)CCc1nc2c(F)c(F)cc(F)c2s1)c1ccccc1 [Example 32-ii), N-[3-(4,5,7-trifluorobenzothiazol-2-yl)-1-thioxopropionyl]-N-phenylglycine]
IC50 [1]: 8.4 nM

O=C(O)CN(C(=O)CCc1nc2c(F)c(F)cc(F)c2s1)c1ccccc1 [Example 4-ii), N-[3-(4,5,7-trifluorobenzothiazol-2-yl)propionyl]-N-phenylglycine]
IC50 [1]: 8.3 nM | Sorbitol Accumulation, Lens [3, 6]: 20% | Sorbitol Accumulation, Nerve [3, 6]: 46%

O=C(O)Cc1cccc(Cc2nc3c(F)c(F)ccc3s2)c1 [Example 21, 3-[(4,5-difluorobenzothiazol-2-yl)methyl]phenylacetic acid]
IC50 [1]: 6.7 nM | Sorbitol Accumulation, Lens [3, 5]: 40% | Sorbitol Accumulation, Nerve [3, 5]: 0%

O=C(O)Cc1cccc(Cc2nc3c(Cl)c(Cl)ccc3s2)c1 [Example 19-ii), 3-[(4,5-dichlorobenzothiazol-2-yl)methyl]phenylacetic acid]
IC50 [1]: 12 nM

From patent US5700819A, “2-substituted benzothiazole derivatives and prophylactic and therapeutic agents for the treatment of diabetic complications” (Grelan Pharmaceutical Co., Ltd., priority 1994, dated 1997)
